# Several values for one entry are separate records, joined by “and”; a condition that tells them apart may be missing. Equal values may be shown once. Read-outs that look alike come from different tables or passages of the source.
# Columns and labels:
# Gardner lymphosarcoma = test: Activity versus Gardner Lymphosarcoma in mice; format: in vivo; conditions: 9 days, usually intraperitoneal
# Method: The following table--Table 1--gives the results of experiments in which mice bearing transplanted Gardner lymphosarcoma were treated successfully with a compound of this invention. In the table, column 1 gives the name of the compound; column 2, the dose level and column 3, the percent inhibition of tumor growth.
# [1] = system: experimental malignancies; conditions: animals; cited from earlier work
# tumor = conditions: Owellen 1975; Cullinan 1975; cited from earlier work
# P1534 murine leukemia = conditions: Hargrove, Lloydia 1964, cited from earlier work
# pKa titration = format: physicochemical; conditions: for pKa: 66 percent dmf, in 66 percent DMF
# Method: A reaction mixture containing 450 mg. of leurosine, 15 ml. of tetrahydrofurane (THF), 8 ml. of anhydrous hydrazine, and 6 ml. of methanol were heated in a sealed glass bomb for 3 days at 50° C. The bomb was opened, the solvents removed in vacuo, and the resulting residue comprising 4-desacetylleurosine C-3 carboxhydrazide formed in the above reaction, was dissolved in methylene dichloride. The methylene dichloride solution was washed with water and dried. Removal of the solvent in vacuo yielded 4-desacetylleurosine C-3 carboxhydrazide as a residue shown by TLC to contain trace quantities of leurosine and of 4-desacetylleurosine. Pure 4-desacetylleurosine C-3 carboxhydrazide (1-spot material) was prepared by chromatographing the residue over silica using 1:1:1 methylenedichloride/ethyl acetate/methanol as the eluant. Fractions shown by TLC to contain 4-desacetylleurosine C-3 carboxhydrazide were combined.
# Titration; pKa at 5.3, 7.0
# P388 leukemia = test: Activity against P388 leukemia in mice; format: in vivo; conditions: 3 days apart
# [2] = Stability on standing in air; format: physicochemical; conditions: upon standing in air
# [3] = titration, free base, solvent not stated
smiles,measurement,setting,value
CCC12CN3CCc4c([nH]c5ccccc45)C(C(=O)OC)(c4cc5c(cc4OC)N(C)C4C(O)(C(=O)NCCO)C(O)C6(CC)C=CCN7CCC54C76)CC(C3)C1O2 (stereo not drawn) [4-Desacetylleurosine C-3 N-(β-hydroxyethyl)carboxamide],Percent Inhibition of tumor growth,Gardner lymphosarcoma; 6 mg/kg per day,100%
same,Percent Inhibition of tumor growth,Gardner lymphosarcoma; 12 mg/kg per day,100% and 98%
CCC12CN3CCc4c([nH]c5ccccc45)C(C(=O)OC)(c4cc5c(cc4OC)N(C)C4C(O)(C(=O)NC)C(O)C6(CC)C=CCN7CCC54C76)CC(C3)C1O2 (stereo not shown) [4-Desacetylleurosine C-3 N-Methyl Carboxamide],Percent Inhibition of tumor growth,Gardner lymphosarcoma; 3 mg/kg per day,33%
same,Percent Inhibition of tumor growth,Gardner lymphosarcoma; 6 mg/kg per day,100%
same,Toxicity (printed in Percent Inhibition column),Gardner lymphosarcoma; 12 mg/kg per day,Toxic
CC[C@]1(O)C[C@@H]2CN(CCc3c([nH]c4ccccc34)[C@@](C(=O)OC)(c3cc4c(cc3OC)N(C)[C@@H]3[C@]45CCN4CC=C[C@@](CC)(C[C@]3(O)C(=O)OC)[C@H]45)C2)C1 [4-desacetoxy vinblastine],activity in the treatment of experimental malignancies,[1],active
CC[C@@]1(O)CN2CCc3c([nH]c4ccccc34)[C@@](C(=O)OC)(c3cc4c(cc3OC)N(C)[C@@H]3[C@]45CCN4CC=C[C@@](CC)(C[C@]3(O)C(=O)OC)[C@H]45)C[C@@H](C2)C1O (stereo partly shown) [4-desacetoxy-3'-hydroxyvinblastine],activity in the treatment of experimental malignancies,[1],active
CCC1(O)CC2CN(CCc3c([nH]c4ccccc34)C(C(=O)OC)(c3cc4c(cc3OC)N(C)C3C(O)(C(=O)OC)C(O)C5(CC)C=CCN6CCC43C65)C2)C1 (stereo not shown) [4-desacetyl VLB],anti-tumor activity,tumor,active anti-tumor agent
same,toxicity,P1534 murine leukemia,toxic material
same,in vivo chemotherapeutic activity,P1534 murine leukemia; P1534 murine leukemia system,little in vivo chemotherapeutic activity
"CCC12CN3CCc4c([nH]c5ccccc45)C(C(=O)OC)(c4cc5c(cc4OC)N(C=O)C4C(O)(C(N)=O)C(O)C6(CC)C=CCN7CCC54C76)CC(C3)C1O2 (stereo not shown) [4-desacetylleuroformine C-3 carboxamide, 4-Desacetylleuroformine C-3 Carboxamide]",Percent Inhibition of tumor growth,Gardner lymphosarcoma; 12 mg/kg per day,39%
"CCC12CN3CCc4c([nH]c5ccccc45)C(C(=O)OC)(c4cc5c(cc4OC)N(C)C4C(O)(C(N)=O)C(O)C6(CC)C=CCN7CCC54C76)CC(C3)C1O2 (stereo not shown) [4-desacetylleurosine C-3 carboxamine, 4-Desacetylleurosine C-3 Carboxamide]",Percent Inhibition of tumor growth,Gardner lymphosarcoma; 3 mg/kg per day,23%
same,Percent Inhibition of tumor growth,Gardner lymphosarcoma; 6 mg/kg per day,100%
same,Toxicity (printed in Percent Inhibition column),Gardner lymphosarcoma; 12 mg/kg per day,Toxic
"CCC12CN3CCc4c([nH]c5ccccc45)C(C(=O)OC)(c4cc5c(cc4OC)N(C)C4C(O)(C(=O)NN)C(O)C6(CC)C=CCN7CCC54C76)CC(C3)C1O2 (stereo not shown) [4-desacetylleurosine C-3 carboxhydrazide, 4-Desacetylleurosine C-3 Carboxhydrazide]",pKa,pKa titration; read-out: pKa (first),5.32
same,pKa,pKa titration; read-out: pKa (second),7.12
CCC12CN3CCc4c([nH]c5ccccc45)C(C(=O)OC)(c4cc5c(cc4OC)N(C)C4C(O)(C(=O)NCCSSCCNC(=O)C6(O)C(O)C7(CC)C=CCN8CCC9(c%10cc(C%11(C(=O)OC)CC%12CN(CCc%13c%11[nH]c%11ccccc%13%11)CC%11(CC)OC%12%11)c(OC)cc%10N(C)C69)C87)C(O)C6(CC)C=CCN7CCC54C76)CC(C3)C1O2 (stereo not drawn) [Bis[β-(4-desacetylleurosine C-3 carboxamide)ethyl]disulfide disulfate],prolongation of survival time,P388 leukemia; 15 mg/kg on three occasions,55%
same,prolongation of survival time,P388 leukemia; 30 mg/kg on three occasions,46%
CCC12CN3CCc4c([nH]c5ccccc45)C(C(=O)OC)(c4cc5c(cc4OC)N(C)C4C(O)(C(=O)NCCSSCCNC(=O)C6(O)C(O)C7(CC)C=CCN8CCC9(c%10cc(C%11(C(=O)OC)CC%12CN(CCc%13c%11[nH]c%11ccccc%13%11)CC%11(CC)OC%12%11)c(OC)cc%10N(C)C69)C87)C(O)C6(CC)C=CCN7CCC54C76)CC(C3)C1O2 (stereo not drawn) [Bis[β-(4-desacetylleurosine C-3 carboxamido)ethyl]disulfide],pKa (first),pKa titration; [3],5.3
same,pKa (second),pKa titration; [3],7.0
"CC[C@@H]1C[C@@H]2CN(CCc3c([nH]c4ccccc34)[C@@](C(=O)OC)(c3cc4c(cc3OC)N(C)[C@H]3[C@@](O)(C(=O)OC)[C@H](OC(C)=O)[C@]5(CC)C=CCN6CC[C@]43[C@@H]65)C2)C1 [deoxy VLB ""A""]",activity in the treatment of experimental malignancies,[1],active
CCC1(O)CN2CCc3c([nH]c4ccccc34)C(C(=O)OC)(c3cc4c(cc3OC)N(C)C3C(O)(C(=O)OC)C(OC(C)=O)C5(CC)C=CCN6CCC43C65)CC(O)(C2)C1 (stereo not shown) [leurocolombine],activity in the treatment of experimental malignancies,[1],active
CCC1(O)CC2CN(CCc3c([nH]c4ccccc34)C(C(=O)OC)(c3cc4c(cc3OC)N(C=O)C3C(O)(C(=O)OC)C(OC(C)=O)C5(CC)C=CCN6CCC43C65)C2)C1 (stereo not shown) [leurocristine],activity in the treatment of experimental malignancies,[1],active
CCC12CN3CCc4c([nH]c5ccccc45)C(C(=O)OC)(c4cc5c(cc4OC)N(C=O)C4C(O)(C(=O)OC)C(OC(C)=O)C6(CC)C=CCN7CCC54C76)CC(C3)C1O2 (stereo not shown) [leuroformine],activity in the treatment of experimental malignancies,[1],active
CC[C@]12CN3CCc4c([nH]c5ccccc45)[C@@](C(=O)OC)(c4cc5c(cc4OC)N(C)[C@H]4[C@@](O)(C(=O)OC)[C@H](OC(C)=O)[C@]6(CC)C=CCN7CC[C@]54[C@@H]76)C[C@H](C3)[C@H]1O2 [leurosine],activity in the treatment of experimental malignancies,[1],active
same,auto-oxidation,[2],auto-oxidizes to a 5'-hydroxy derivative
CCC1(O)CN2CCc3c([nH]c4ccccc34)C(C(=O)OC)(c3cc4c(cc3OC)N(C)C3C(O)(C(=O)OC)C(OC(C)=O)C5(CC)C=CCN6CCC43C65)CC(C2)C1O (stereo not shown) [vincadioline],activity in the treatment of experimental malignancies,[1],active
CCC1(O)CC2CN(CCc3c([nH]c4ccccc34)C(C(=O)OC)(c3cc4c(cc3OC)N(C)C3C(O)(C(=O)OC)C(OC(C)=O)C5(CC)C=CCN6CCC43C65)C2)C1 (stereo not shown) [vincaleukoblastine],activity in the treatment of experimental malignancies,[1],active
